From ChEMBL document CHEMBL3865844, “Synthesis of 3,5-dihydroxy-7,8-dimethoxy-2-(4-methoxyphenyl)benzopyran-4-one derivatives as anticancer agents” (Bioorg Med Chem Lett, 2016)
The source made the active and inactive calls. The calls are words filed in the database; no cut-off is given here.

How the values were obtained:
[1] = Anticancer activity against human DLD1 cells measured after 48 hrs by SRB assay; format: functional, cell-based; conditions: DLD-1, 48 h
[2] = Anticancer activity against human ER-positive MCF7 cells measured after 48 hrs by SRB assay; format: functional, cell-based; conditions: MCF7, 48 h
[3] = Anticancer activity against human FADU cells measured after 48 hrs by SRB assay; format: functional, cell-based
[4] = Anticancer activity against human A549 cells measured after 48 hrs by SRB assay; format: functional, cell-based; conditions: A549, 48 h
[5] = Anticancer activity against human DU145 cells measured after 48 hrs by SRB assay; format: functional, cell-based; conditions: DU-145, 48 h
[6] = Inhibition of tubulin depolymerization (unknown origin) measured up to 60 mins; design: species or system Homo sapiens
[7] = Cytotoxicity against human THP1 cells by MTT assay; format: toxicity, cell-based, THP-1
[8] = Cell cycle arrest in human ER-positive MCF7 cells assessed as accumulation at sub-G0 phase at 7.2 and 14.93 uM by propidium iodide staining based flow cytometry relative to vehicle control; format: functional; conditions: TDE = time-dependent effect
MCF7 = experiment: Induction of apoptosis in human ER-positive MCF7 cells assessed as PARP cleavage at 2.5 to 10 uM by Western blot analysis; format: functional, cell-based; conditions: TDE = time-dependent effect
[9] = Cell cycle arrest in human ER-positive MCF7 cells assessed as accumulation at G2M phase at 7.2 and 14.93 uM by propidium iodide staining based flow cytometry relative to vehicle control; format: functional; conditions: TDE = time-dependent effect
[10] = Cell cycle arrest in human ER-positive MCF7 cells assessed as decrease in S-phase cell population at 7.2 and 14.93 uM after 24 hrs by propidium iodide staining based flow cytometry relative to vehicle control; format: functional

EC50 [6]	Compound	IC50 [1]	IC50 [2]	IC50 [3]	IC50 [4]	IC50 [5]	CC50 [7]	Activity [8]	Activity (MCF7)	Activity [9]	Activity [10]
	COc1ccc(-c2oc3c(OC)c(OC)cc(OCCCC(=O)N4CCN(C)CC4)c3c(=O)c2O)cc1	> 40 µM	> 40 µM	> 40 µM	> 40 µM	> 40 µM					
3.4 µM	CCCCN(C)C(=O)CCCOc1cc(OC)c(OC)c2oc(-c3ccc(OC)cc3)c(O)c(=O)c12	> 40 µM	> 40 µM	> 40 µM	> 40 µM	> 40 µM					
	COc1ccc(-c2oc3c(OC)c(OC)cc(OCCCCCC(=O)NCCc4ccccn4)c3c(=O)c2O)cc1	> 40 µM	> 40 µM	> 40 µM	> 40 µM	> 40 µM					
	COc1ccc(-c2oc3c(OC)c(OC)cc(OCCCC(=O)NCCc4ccccn4)c3c(=O)c2O)cc1	> 40 µM	> 40 µM	> 40 µM	> 40 µM	> 40 µM					
0.97 µM	CC(=O)O[C@H]1C(=O)[C@@]2(C)[C@H]([C@H](OC(=O)c3ccccc3)[C@]3(O)C[C@H](OC(=O)[C@H](O)[C@@H](NC(=O)c4ccccc4)c4ccccc4)C(C)=C1C3(C)C)[C@]1(OC(C)=O)CO[C@@H]1C[C@@H]2O [PACLITAXEL]										
	COc1ccc(-c2oc3c(OC)c(OC)cc(OCCCCC(=O)NCCc4ccccn4)c3c(=O)c2O)cc1	> 40 µM	> 40 µM	> 40 µM	> 40 µM	> 40 µM					
	COc1ccc(-c2oc3c(OC)c(OC)cc(OCCN4CCCCC4)c3c(=O)c2O)cc1	4.56 µM	11.9 µM	9.96 µM	10.3 µM	6.55 µM	100 µM				
25.1 µM	COc1ccc(-c2oc3c(OC)c(OC)cc(OC(C)CN(C)C)c3c(=O)c2O)cc1 (stereo unspecified)	2.56 µM	7.2 µM	5.41 µM	6.12 µM	4.38 µM	100 µM	Tde	Tde	Tde	Active
	COc1ccc(-c2oc3c(OC)c(OC)cc(OCCCCCC(=O)NCc4ccccn4)c3c(=O)c2O)cc1	> 40 µM	> 40 µM	> 40 µM	> 40 µM	> 40 µM					
5.25 µM	COc1ccc(-c2oc3c(OC)c(OC)cc(OCCCCCC(=O)N4CCN(C)CC4)c3c(=O)c2O)cc1	13.7 µM	14.1 µM	15.8 µM	14.8 µM	13.2 µM	50 µM				
	COc1ccc(-c2oc3c(OC)c(OC)cc(OCCCCC(=O)NCc4ccccn4)c3c(=O)c2O)cc1	> 40 µM	> 40 µM	> 40 µM	> 40 µM	> 40 µM					
	CCCCN(C)C(=O)CCCCOc1cc(OC)c(OC)c2oc(-c3ccc(OC)cc3)c(O)c(=O)c12	17.4 µM	22.3 µM	22 µM	16.7 µM	10.8 µM	200 µM				
	COc1ccc(-c2oc3c(OC)c(OC)cc(OCCCCC(=O)N4CCN(C)CC4)c3c(=O)c2O)cc1	> 40 µM	> 40 µM	> 40 µM	> 40 µM	> 40 µM					
	COc1ccc(-c2oc3c(OC)c(OC)cc(OCCCC(=O)NCc4ccccn4)c3c(=O)c2O)cc1	> 40 µM	> 40 µM	> 40 µM	> 40 µM	> 40 µM					
	CCCCCN(C)C(=O)CCCCCOc1cc(OC)c(OC)c2oc(-c3ccc(OC)cc3)c(O)c(=O)c12	19.4 µM	34.9 µM	> 40 µM	17.2 µM	22.5 µM	200 µM				
	CCN(CC)CCOc1cc(OC)c(OC)c2oc(-c3ccc(OC)cc3)c(O)c(=O)c12	7.81 µM	25.1 µM	12.8 µM	13.8 µM	11.3 µM	200 µM				
	CC/C(=C(\c1ccccc1)c1ccc(OCCN(C)C)cc1)c1ccccc1 [TAMOXIFEN]	11.1 µM	18.2 µM	5.39 µM	17.3 µM	18.1 µM					
	COc1ccc(-c2oc3c(OC)c(OC)cc(OCCN4CCCC4)c3c(=O)c2O)cc1	17.4 µM	14.9 µM	9.79 µM	11.1 µM	7.07 µM	100 µM				
	COc1ccc(-c2oc3c(OC)c(OC)cc(OCCN(C)C)c3c(=O)c2O)cc1	4.44 µM	12.9 µM	10.9 µM	7.17 µM	6.03 µM	200 µM				
